Legend:
MV-4-11 cells = assay: IC50 of Table 2: Method 2, MV-4-11 cell survival (Cell Counting Kit-8), reported as Her2 degradation / inhibition of Hsp90; format: cell-based; conditions: Homo sapiens, MV4-11, 72 hours at 37° C., text calls it Her2 degradation, table title inhibition of Hsp90
Experimental: MV-4-11 cells (20,000 cells/well) were cultured in 96-well plates and maintained at 37° C. for several hours. The cells were treated with a compound of the invention or 17AAG (a positive control) at various concentrations and incubated at 37° C. for 72 hours. Cell survival was measured with Cell Counting Kit-8 (Dojindo Laboratories, Cat. #CK04).

Her2 = assay: Degradation of Her2 in BT-474 cells, Method 1 (Western blot); format: cell-based, human; conditions: 0.5 μM, overnight
Experimental: Human high-Her2 breast carcinoma BT474 (HTB-20), SK-BR-3 (HTB-30) and MCF-7 breast carcinoma (HTB-22) from American Type Culture Collection, VA, USA were grown in Dulbecco's modified Eagle's medium with 4 mM L-glutamine and antibiotics (100 IU/ml penicillin and 100 ug/ml streptomycine; GibcoBRL). To obtain exponential cell growth, cells were trypsinized, counted and seeded at a cell density of 0.5×10^6 cells/ml regularly, every 3 days. All experiments were performed on day 1 after cell passage.
BT-474 cells are treated with 0.5 μM, 2 μM, or 5 μM of 17AAG (a positive control) or 0.5 μM, 2 μM, or 5 μM of a compound of the invention overnight in DMEM medium. After treatment, each cytoplasmic sample is prepared from 1×10^6 cells by incubation of cell lysis buffer (#9803, cell Signaling Technology) on ice for 10 minutes. The resulting supernatant used as the cytosol fractions is dissolved with sample buffer for SDS-PAGE and run on a SDS-PAGE gel, blotted onto a nitrocellulose membrane by using semi-dry transfer. Non-specific binding to nitrocellulose is blocked with 5% skim milk in TBS with 0.5% Tween at room temperature for 1 hour, then probed with anti-Her2/ErB2 mAb (rabbit IgG, #2242, Cell Signaling) and anti-Tubulin (T9026, Sigma) as housekeeping control protein. […]

Row | Structure (SMILES) | IC50 (MV-4-11 cells) [µM] | degradation of Her2 (Her2)
1 | CC(C)c1cc(C2=NNC(=O)CN2Cc2ccc3c(c2)OCO3)c(O)cc1O [Compound 5, 4-(benzo[d][1,3]dioxol-5-ylmethyl)-3-(2,4-dihydroxy-5-isopropylphenyl)-4,5-dihydro-1,2,4-triazin-6(1H)-one] | 38.4 | 
2 | COc1ccc(CN2CC(=O)NN=C2c2cc(C(C)C)c(O)cc2O)cc1 [Compound 8, 3-(2,4-dihydroxy-5-isopropylphenyl)-4-(4-methoxybenzyl)-4,5-dihydro-1,2,4-triazin-6(1H)-one] | > 50 | 
3 | CC(C)c1cc(C2=NNC(=O)CN2c2ccc(N(C)C)cc2)c(O)cc1O [Compound 7, 3-(2,4-dihydroxy-5-isopropylphenyl)-4-(4-(dimethylamino)phenyl)-4,5-dihydro-1,2,4-triazin-6(1H)-one] | > 50 | 
4 | CC(C)c1cc(C2=NNC(=O)CN2c2ccc(N3CCOCC3)cc2)c(O)cc1O [Compound 6, 3-(2,4-dihydroxy-5-isopropylphenyl)-4-(4-morpholinophenyl)-4,5-dihydro-1,2,4-triazin-6(1H)-one] | > 50 | 
5 | CCOC(=O)C1=C(C)NC(=O)NC1c1cc(C(C)C)c(O)cc1O (stereo not drawn) [Compound 1, ethyl 4-(2,4-dihydroxy-5-isopropylphenyl)-6-methyl-2-oxo-1,2,3,4-tetrahydropyrimidine-5-carboxylate] | > 100 | 
6 | CCN1CC2=C(C1=O)C(c1cc(C(C)C)c(O)cc1O)NC(=O)N2 (stereo not drawn) [Compound 2, 4-(2,4-dihydroxy-5-isopropylphenyl)-6-ethyl-3,4,6,7-tetrahydro-1H-pyrrolo[3,4-d]pyrimidine-2,5-dione] | > 100 | 
7 | CC(C)c1cc(C2=NNC(=O)CN2c2ccc3c(ccn3C)c2)c(O)cc1O [Compound 4, 3-(2,4-dihydroxy-5-isopropylphenyl)-4-(1-methyl-1H-indol-5-yl)-4,5-dihydro-1,2,4-triazin-6(1H)-one] | > 50 | 
8 | CC(C)c1cc(C2NC(=O)NC3=C2C(=O)OC3)c(O)cc1O (stereo not drawn) [Compound 3, 4-(2,4-dihydroxy-5-isopropylphenyl)-3,4-dihydrofuro[3,4-d]pyrimidine-2,5(1H,7H)-dione] | > 500 | 
9 | C=CCNC1=C2C[C@@H](C)C[C@H](OC)[C@H](O)[C@@H](C)/C=C(\C)[C@H](OC(N)=O)[C@@H](OC)/C=C\C=C(/C)C(=O)NC(=CC1=O)C2=O [Compound 17AAG, 17-allylamino-17-demethoxygeldanamycin] |  | partial degradation
